Patent US5310884A (Merck Frosst Canada, Inc., priority 1992, dated 1994)
Like-named read-outs stand apart in the source and are kept apart here.

Experiments:
[1] = molecular target: T1, 45 kDa guinea-pig lung membrane protein (Cavia porcellus, UniProt Q2NNR5); assay: [125I]Azido-LTD4 photoaffinity labelling of the 45 kDa guinea-pig lung membrane protein (SDS-PAGE, autoradiography, laser densitometry); assay type: binding; settings: for IC50: laser densitometry, leukotrienes and antagonists, read-out: IC50 for inhibition of photolabelling of the 45 kDa protein
T1 construct: Guinea pigs (male; from tissue; host or cells: guinea-pig lung (primarily parenchyma), sucrose-gradient membrane fraction
T1 sequence (Q2NNR5 1-340): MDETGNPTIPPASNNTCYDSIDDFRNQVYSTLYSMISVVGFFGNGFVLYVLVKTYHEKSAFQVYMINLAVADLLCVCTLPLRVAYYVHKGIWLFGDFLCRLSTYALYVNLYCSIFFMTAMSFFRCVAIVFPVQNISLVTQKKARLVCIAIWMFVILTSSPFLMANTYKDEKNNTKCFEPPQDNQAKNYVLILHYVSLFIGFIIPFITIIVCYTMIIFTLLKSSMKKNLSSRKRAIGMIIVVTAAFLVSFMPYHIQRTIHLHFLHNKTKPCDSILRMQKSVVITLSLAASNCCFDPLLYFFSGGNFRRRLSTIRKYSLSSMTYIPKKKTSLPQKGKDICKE
Description: (§1) Guinea pigs (male; 350 g) were sacrificed by cervical dislocation and the lung tissues removed. All subsequent procedures were performed either on ice or at 4° C. Connective tissue, trachea, large blood vessels and major airways were dissected away and the remaining lung tissue (primarily parenchyma) was finely minced prior to homogenisation in 10 vol of 10 mM HEPES/KOH pH 7.4, containing 0.25 M sucrose, 2 mM EDTA, 2 mM phenylmethylsulphonyl fluoride, 10 μg/ml pepstatin, 10 μg/ml leupeptin and 10 μM E-64, using 5 s bursts of a polytron (Brinkman Instruments). The homogenate was subjected to differential centrifugation at 1000×g for 10 min, 10,000×g for 10 min and 100,000×g for 40 min. The resulting 100,000×g pellets were resuspended in 10 mM HEPES/KOH pH 7.4, containing 10% (w/v) sucrose, at a final protein concentration of 1-2 mg/ml. This tissue suspension was carefully layered over 10 mM HEPES/KOH pH 7.4 containing 40% (w/v) sucrose in a 3:2 (v/v) ratio. The discontinuous sucrose gradient was centrifuged at 83,000×g for 60 min. The membrane fraction located at the interface of the sucrose gradient layers was recovered, diluted 10-fold in 10 mM HEPES/KOH pH 7.4 and further centrifuged at 150,000×g for 40 min. The final membrane pellets were resuspended in 10 mM HEPES/KOH pH 7.4 at a protein concentration of 2-4 mg/ml and stored at […].
(§2) Samples were incubated for 60 min at room temperature. […] The residual samples were then transferred to 25 mm diameter cluster plate well for photolysis. The cluster plates were placed on aluminium blocks, pre-cooled to -20° C., and illuminated from above with a 40 W ultraviolet light source (Phillips, γmax =350 nm) at a distance of 10 cm for 2 min. The guinea-pig lung membranes were then recovered from 1 ml sample aliquots by centrifugation at 150,000×g for 15 min at 4° C. and solubilized in sodium dodecyl sulphate polyacrylamide gel electrophoresis (SDS-PAGE) sample buffer prior to resolution of the proteins by SDS-PAGE (Laemmli, 1970). Protein bands were visualized by Coomassie Blue staining while radiolabelled proteins were identified by autoradiography of dried gels and quantified by laser densitometry (Molecular Dynamics, ImageQuant).
(§3) FIG. 4. […] Radiolabelled proteins were resolved by SDS-PAGE and visualized by autoradiography. […] In addition, photoaffinity labelled membranes were subjected to immunoprecipitation with RAGpAlb (Lane C) and non-immune rabbit serum (Lane D), as described in the Methods. The migration of molecular weight standards is indicated on the left. FIGS. 5(A)-5(C). […] Results are expressed as percentage of maximum specific binding as a function of CaCl2 concentration. […] Only the results for total binding are shown.
(§4) Results are expressed as percentage of maximum specific binding as a function of nucleotide concentration. […] Only the results for total binding are shown.
(§5) Results are expressed as percentage of maximum specific binding as a function of cation concentration. […] Only the results for total binding are shown.

[2] = molecular target: T2, LTD4 receptor (guinea-pig lung membranes) (Cavia porcellus, UniProt Q2NNR5); settings: for effect of divalent cation on [125I]Azido-LTD4 specific binding: CaCl2 at concentrations above 30 mM, MgCl2 instead of CaCl2
T2 sequence (Q2NNR5 1-340): T1 sequence (Q2NNR5 1-340)
Description: as §1
Filters were then washed with 16 ml of 10 mM HEPES/KOH, pH 7.4 containing 0.01% (w/v) bovine serum albumin, at 4° C.
as §3, §4, §5

[3] = molecular target: T2, LTD4 receptor (guinea-pig lung membranes); assay: biochemical; settings: for effect of divalent cation on [3H]LTD4 specific binding: CaCl2 at concentrations above 30 mM, MgCl2 instead of CaCl2
Description: as §1
Competition experiments were analysed and IC50 values derived using the Kinetic, EBDA, Ligand, […] program from Biosoft (McPherson, 1985).
as §3, §4, §5

[4] = molecular target: T2, LTD4 receptor (guinea-pig lung membranes); assay: Saturation binding to guinea-pig lung membranes, Scatchard plot analysis; parameters: Guinea pigs (male; 350 g) were sacrificed by cervical dislocation and the lung tissues removed; from tissue; host or cells: guinea-pig lung (primarily parenchyma), sucrose-gradient membrane fraction; settings: Scatchard, single site
[5] = molecular target: T2, LTD4 receptor (guinea-pig lung membranes); assay: Rates of association and dissociation of radioligand binding to guinea-pig lung membranes; parameters: Guinea pigs (male; from tissue; host or cells: guinea-pig lung (primarily parenchyma), sucrose-gradient membrane fraction; settings: identical experimental conditions; data not shown
Description: FIG. 3. […] Aliquots (500 μl) were removed and filtered at the required time intervals.

[6] = test system: 45 kDa guinea-pig lung membrane protein; assay: [125I]Azido-LTD4 photoaffinity labelling of the 45 kDa guinea-pig lung membrane protein (SDS-PAGE, autoradiography, laser densitometry); assay type: binding; settings: for effect of divalent cation on photolabelling of the 45 kDa protein: CaCl2, same concentration range, MgCl2 instead of CaCl2
Description: as §1, §2, §3, §4, §5

## CCCCC/C=C\C[C@@H](O)/C=C/C=C/C=C\[C@@H](O)CCCC(=O)O [LTB4]
[1]; LTB4
  concentration at which it competes for radiolabelling of the 45 kDa protein: 10 µM
[2]; vs LTD4
  potency relative to LTD4 (fold less potent), [125I]Azido-LTD4 specific binding: approximately 10000 fold
[3]; vs LTD4
  potency relative to LTD4 (fold less potent), [3H]LTD4 specific binding: approximately 10000 fold

## CCCCC/C=C\C\C=C/C=C/C=C/[C@@H](SCC(N)C(=O)NCC(=O)O)[C@@H](O)CCCC(=O)O (some centres unmarked) [[^3 H]LTD4]
[4]
  maximum number of binding sites (Bmax): 2000 fmol/mg protein
[5]
  association and dissociation profile compared with [125I]Azido-LTD4: identical

## [Cl-].[K+] [KCl]
[6]; KCl, 0-100 mM
  inhibition of photolabelling of the 45 kDa protein: did not significantly inhibit
[2]; KCl, 0-100 mM
  inhibition of [125I]Azido-LTD4 specific binding: did not significantly inhibit
[3]; KCl, 0-100 mM
  inhibition of [3H]LTD4 specific binding: did not significantly inhibit

## COc1cc(C(=O)NS(=O)(=O)c2ccccc2C)ccc1Cc1cn(C)c2ccc(NC(=O)OC3CCCC3)cc12 [lCl 204,219]
[1]
  IC50: 0.0003 µM

## Nc1ncnc2c1ncn2[C@@H]1O[C@H](COP(=O)(O)OP(=O)(O)OP(O)(O)=S)[C@@H](O)[C@H]1O [ATPγS]
[2]; ATPγS vs GTPγS
  potency relative to GTPγS in inhibiting [125I]Azido-LTD4 specific binding (fold less potent): 100 fold
[3]; ATPγS
  effect of nucleotide analogue on [3H]LTD4 specific binding: no detectable effect

## CC(C)c1ccc2c(c1)c(SC(C)(C)C)c(CC(C)(C)C(=O)O)n2Cc1ccc(Cl)cc1 [MK-886]
[1]; MK-886, 0-10 μM
  competition for radiolabelling of the 45 kDa protein: only able to compete for the selective radiolabelling of the 45 kDa protein at similarly high ligand concentrations
[2]; weak competing ligand
  concentration producing inhibition of [125I]Azido-LTD4 specific binding: > 1 µM
[3]; weak competing ligand
  concentration producing inhibition of [3H]LTD4 specific binding: > 1 µM

## CCCCC/C=C\C\C=C/C=C/C=C/[C@@H](SC[C@H](NC(=O)CCCCCNC(=O)c1cc(I)c(N=[N+]=[N-])cc1O)C(=O)NCC(=O)O)[C@@H](O)CCCC(=O)O [^127 lAzido-LTD4]
[3]
  Ki: 0.0017 µM
[3]; vs Ki of LTD4, same assay
  Ki relative to LTD4 (fold higher): 5 fold

## [Ca+2].[Cl-].[Cl-] [CaCl2]
[6]
  concentration for optimal radiolabelling of the 45 kDa protein: 3 to 30 mM
  effect of divalent cation on photolabelling of the 45 kDa protein: enhanced
[2]
  concentration for optimal [125I]Azido-LTD4 specific binding: 3 to 30 mM
  effect of divalent cation on [125I]Azido-LTD4 specific binding: higher concentrations proving inhibitory
[3]
  concentration for optimal [3H]LTD4 specific binding: 3 to 30 mM
  effect of divalent cation on [3H]LTD4 specific binding: higher concentrations proving inhibitory

## CN(C)C(=O)CCSC(SCCC(=O)O)c1cccc(/C=C/c2ccc3ccc(Cl)cc3n2)c1 (centres unmarked) [MK-571]
[1]
  IC50: 0.001 µM
[2]; read-out: IC50 for competition with [125I]Azido-LTD4 specific binding, leukotrienes and antagonists, LTC4 with 50 mM serine-borate
  IC50: 0.003 µM
[3]
  IC50: 0.002 µM

## [Cl-].[Na+] [NaCl]
[6]; monovalent cation, read-out: IC50 for inhibition of radiolabelling of the 45 kDa protein
  IC50: ~30000 µM
[2]; read-out: IC50 for inhibition of [125I]Azido-LTD4 specific binding, monovalent cation
  IC50: ~30000 µM
[3]; read-out: IC50 for inhibition of [3H]LTD4 specific binding, monovalent cation
  IC50: ~30000 µM

## Nc1nc2c(ncn2[C@@H]2O[C@H](COP(=O)(O)OP(=O)(O)OP(O)(O)=S)[C@@H](O)[C@H]2O)c(=O)[nH]1 [GTPγS]
[6]; GTPγS vs ATPγS
  potency relative to ATPγS in inhibiting photolabelling of the 45 kDa protein (fold more potent): 100 fold
[6]; nucleotide analogue, read-out: IC50 for inhibition of photolabelling of the 45 kDa protein
  IC50: 1 µM
[2]; 10 μM GTPγS
  inhibition of [125I]Azido-LTD4 specific binding: complete inhibition
[3]; read-out: inhibition of [3H]LTD4 specific binding
  inhibition at 1000 µM: 60%

## [Cl-].[Cl-].[Mg+2] [MgCl2]
[6]
  effect of divalent cation on photolabelling of the 45 kDa protein: Identical results
[2]
  effect of divalent cation on [125I]Azido-LTD4 specific binding: Identical results
[3]
  effect of divalent cation on [3H]LTD4 specific binding: Identical results
